Reference: patent US9439927B2, “Treatment of inflammatory bowel disease” (Glock Health GmbH, priority 2013, dated 2016)

Assays:
[1] = test system: IBD induced by administration of dextran sulfate sodium (DSS); experiment: Blood in stool, DSS-induced IBD in mice; type: in vivo; parameters: key to Blood in stool: + Blood in stool; − No blood in stool; settings: for Blood in stool: DSS in drinking water for five days, test substance orally from the sixth day
Protocol: (§1) For five groups of 12 mice each (only 3 mice in the control), the experimental routine procedure frequently used in connection with the treatment of IBD was carried out, in which IBD is induced by administration of dextran sulfate sodium (DSS). This involved administering DSS in drinking water for five days (but not in the control group), and after that the particular test substance was administered orally. On the tenth day, the mice were sacrificed using CO2 and the colon was removed for examination. The individual groups were as follows:
Group 2: received only DSS.
Group 3: (GHC1) received DSS as described above and, from the sixth day, a clinoptilolite freed of heavy metals which was ground to a mean particle size of 3.5 μm and thus not in accordance with the invention.
Group 4: (GHC2) received, from the sixth day, the substance according to the invention.
Group 5: (5ASA) received, from the sixth day, sulfasalazine, a derivative of mesalazine, also termed 5-ASA.

[2] = test system: intestinal epithelium; experiment: Histological analysis (hematoxylin and eosin staining) and colon damage score; type: in vivo, mice
Protocol: as §1, with “examination.” for “examination. The individual groups were as follows:”

[3] = test system: IBD induced by administration of dextran sulfate sodium (DSS); experiment: Stool consistency (stool score), DSS-induced IBD in mice; type: in vivo; settings: tenth day, FIG. 2
Protocol: as §1, with “examination.” for “examination. The individual groups were as follows:”

[4] = test system: TNF-α; experiment: TNF-α mRNA by RT-PCR in intestinal tissue homogenates; type: in vivo, mice; settings: FIG. 10
Protocol: as §1
To objectify and quantify the effects determined from the histological examinations, further analyses of biochemical inflammation markers (TNF-α/IL-6/IL-1β mRNA by means of RT-PCR, MPO activity) from tissue homogenates of the relevant intestinal segments were carried out.
Two further proinflammatory cytokines were examined; the results are shown in FIG. 9 (IL-6) and 10 (TNF-α). Said figures show: • 2expΔΔct=the rise in expression for a particular gene (1=1×, 2=2×, etc.); • Control=control group; • DSS1.5=group 2; • DSS1.5+GHC1=group 3; • DSS1.5+GHC2=(inventive) group 4; • DSS1.5+5ASA=group 5; • **=a very significant difference in relation to the control group (control); • #=a significant difference in relation to the DDS1.5 group (group 2); • ##=a very significant difference in relation to the DDS1.5 group (group 2).

With `O=C(O)c1cc(/N=N/c2ccc(S(=O)(=O)Nc3ccccn3)cc2)ccc1O` [5ASA, sulfasalazine] the Blood in stool ([1]; day 0) was “−”, the Blood in stool ([1]; day 2) was “−” and the Blood in stool ([1]; day 4) was “−”. The Blood in stool ([1]; day 6) was “+”, the Blood in stool ([1]; day 8) was “−” and the Blood in stool ([1]; day 10) was “−”. The “Days on which blood in stool was exhibited” value ([1]; text summary of Table I) was “only on the sixth day”, the “Healing of the intestinal epithelium (histology)” value ([2]; hematoxylin and eosin staining, day 10, FIG. 5) was “distinctly improved healing of the intestinal epithelium” and the Colon damage score ([2]; histo(patho)logical examinations, FIG. 6) was “good convergence”. For the same molecule, the “Stool consistency, return to normal range” value [3] was “completely within the normal range” and the “TNF-α expression (2expΔΔct)” value [4] was “does not show a positive effect”.
